# pKi: −log10 of the molar value.
# Key:
# Adenosine receptor A1 = target: T1, Adenosine receptor A1 (Bos taurus, UniProt P28190); experiment: Displacement of specific [3H]CHA binding at adenosine A1 receptor in bovine brain membranes; type: cell membranes
# T1 sequence (P28190 whole entry): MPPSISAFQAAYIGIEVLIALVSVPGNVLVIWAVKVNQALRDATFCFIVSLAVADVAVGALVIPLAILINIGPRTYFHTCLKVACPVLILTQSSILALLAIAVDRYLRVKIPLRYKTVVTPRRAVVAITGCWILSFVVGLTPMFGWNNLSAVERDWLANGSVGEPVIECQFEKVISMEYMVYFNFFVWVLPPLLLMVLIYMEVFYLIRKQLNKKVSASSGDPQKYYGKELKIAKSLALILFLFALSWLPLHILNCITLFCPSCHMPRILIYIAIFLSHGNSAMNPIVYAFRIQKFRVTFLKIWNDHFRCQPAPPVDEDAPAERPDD
# Adenosine receptor A3 = target: T2, Adenosine receptor A3 (Homo sapiens, UniProt P0DMS8); experiment: Displacement of specific [125I]AB-MECA binding at human adenosine A3 receptor expressed in CHO cells; type: cell-based
# T2 sequence (P0DMS8 whole entry): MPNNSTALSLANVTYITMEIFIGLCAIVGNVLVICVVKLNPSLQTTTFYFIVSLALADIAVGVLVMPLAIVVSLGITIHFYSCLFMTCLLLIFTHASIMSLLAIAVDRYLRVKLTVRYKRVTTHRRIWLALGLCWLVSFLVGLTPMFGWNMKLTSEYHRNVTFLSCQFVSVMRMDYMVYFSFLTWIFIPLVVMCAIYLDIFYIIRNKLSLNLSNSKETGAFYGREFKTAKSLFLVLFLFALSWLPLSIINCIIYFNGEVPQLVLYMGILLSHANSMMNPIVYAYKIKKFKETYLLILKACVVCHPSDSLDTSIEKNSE
# [1] = system: Adenosine receptor A2a (Bos taurus); experiment: Inhibition of specific [3H]-CGS- 21680 binding at Adenosine A2A receptor in bovine striatal membranes at 20 uM.; details: Striatum, Membrane
# [2] = target: Adenosine receptor A2a (Bos taurus); experiment: Displacement of specific [3H]-CGS- 21680 binding at Adenosine A2A receptor in bovine striatal membranes.
# [3] = target: T3, Adenosine receptor A3 (Homo sapiens) (UniProt P0DMS8); experiment: Inhibition of [125I]AB-MECA binding to human Adenosine A3 receptor expressed in CHO cells at 1 uM; type: cell-based
# T3 sequence (whole entry): T2 sequence (P0DMS8 whole entry)
# [4] = target: T4, Adenosine receptor A1 (Bos taurus) (UniProt P28190); experiment: Inhibition of [3H]CHA binding at Adenosine A1 receptor in bovine brain membranes at 20 uM; type: cell membranes
# T4 sequence (whole entry): T1 sequence (P28190 whole entry)
Compound,pKi (Adenosine receptor A1),pKi (Adenosine receptor A3),inhibition [1],pKi [2],inhibition [3],inhibition [4]
Cc1ccccc1-n1cc2c(n1)c(=O)[nH]c1ccccc12,5.49,7.10,,,,
Cc1ccccc1-n1cc2c(n1)c(NC1CCCC1)nc1ccccc12,6.83,6.82,,,,
Clc1ccc(-n2cc3c(n2)c(NC2CCCCC2)nc2ccccc23)cc1,6.32,7.25,8%,,,
Oc1nc2ccc(Cl)cc2c2cn(-c3ccccc3)nc12,,,52%,,,
O=C(NCc1ccccc1)Nc1nc2ccccc2c2cn(-c3ccccc3)nc12,6.73,8.08,5%,,,
Cc1ccc(-n2cc3c(n2)c(=O)[nH]c2ccccc23)cc1,5.41,8.49,,,,
O=c1[nH]c2ccc(Cl)cc2c2cn(-c3ccccc3)nc12,6.55,7.36,,,,
Fc1cccc(-n2cc3c(n2)c(NC2CCCCC2)nc2ccccc23)c1,7.26,6.81,,,,
c1ccc(CCNc2nc3ccccc3c3cn(-c4ccccc4)nc23)cc1,7.22,7.48,,,,
Cc1cccc(-n2cc3c(n2)c(=O)[nH]c2ccccc23)c1,6.08,8.30,17%,,,
Clc1ccc2nc(NC3CCCCC3)c3nn(-c4ccccc4)cc3c2c1,7.57,5.67,,5.38,,
COc1ccc(-n2cc3c(n2)c(=O)[nH]c2ccccc23)cc1,5.97,8.49,18%,,,
c1ccc(CNc2nc3ccccc3c3cn(-c4ccccc4)nc23)cc1,6.88,7.45,,5.27,,
Nc1nc2ccccc2c2cn(-c3ccc(Cl)cc3)nc12,,6.82,,,,
c1ccc(-n2cc3c(n2)c(NC2CCCCC2)nc2ccccc23)cc1,8.07,6.15,,,,
O=C(Nc1ccccc1)Nc1nc2ccccc2c2cn(-c3ccccc3)nc12,5.82,6.97,32%,,,
Cn1c(=O)c2nn(-c3ccccc3)cc2c2ccccc21,5.91,6.93,,,,
c1ccc(-n2cc3c(n2)c(NC2CCCC2)nc2ccccc23)cc1,8.49,7.22,,6.07,,
Fc1cccc(-n2cc3c(n2)c(NC2CCCC2)nc2ccccc23)c1,8.03,,,5.66,34%,

Compound,pKi (Adenosine receptor A1),pKi (Adenosine receptor A3),inhibition [1],pKi [2],inhibition [3],inhibition [4]
Nc1nc2ccc(Cl)cc2c2cn(-c3ccccc3)nc12,7.06,6.51,,5.24,,
Nc1nc2ccccc2c2cn(-c3ccccc3)nc12,7.16,6.26,,,,
Oc1nc2ccccc2c2cn(-c3ccc(Cl)cc3)nc12,,,35%,,,
CCCn1c(=O)c2nn(-c3ccccc3)cc2c2ccccc21,6.02,7.16,,,,
Cc1ccc(-n2cc3c(n2)c(NC2CCCCC2)nc2ccccc23)cc1,7.14,6.94,,,,
O=C(Cc1ccccc1)Nc1nc2ccccc2c2cn(-c3ccccc3)nc12,6.97,8.00,,,,
Cc1cccc(-n2cc3c(n2)c(NC2CCCCC2)nc2ccccc23)c1,7.65,7.36,,4.94,,
Cc1cccc(-n2cc3c(n2)c(NC2CCCC2)nc2ccccc23)c1,7.39,7.65,,,,
Oc1nc2ccccc2c2cn(-c3cccc(F)c3)nc12,6.23,7.34,0%,,,
O=C(Nc1nc2ccccc2c2cn(-c3ccccc3)nc12)c1ccccc1,,8.68,,,,42%
Cc1cccc(-n2cc3c(n2)c(N)nc2ccccc23)c1,6.89,7.00,,5.43,,
Cc1ccc(-n2cc3c(n2)c(N)nc2ccccc23)cc1,6.67,6.73,,,,
Nc1nc2ccccc2c2cn(-c3cccc(F)c3)nc12,6.96,6.10,,,,
COc1ccc(-n2cc3c(n2)c(N)nc2ccccc23)cc1,6.62,7.04,,,,
O=c1[nH]c2ccccc2c2cn(-c3ccc(Cl)cc3)nc12,6.33,8.54,,,,
O=c1[nH]c2ccccc2c2cn(-c3ccccc3)nc12,,7.51,,,,
CC(=O)Nc1nc2ccccc2c2cn(-c3ccccc3)nc12,7.12,7.32,,,,
Cc1ccccc1-n1cc2c(n1)c(N)nc1ccccc12,6.28,5.44,,5.80,,
Cc1ccccc1-n1cc2c(n1)c(O)nc1ccccc12,,,0%,,,

# From ChEMBL document CHEMBL1133616, “Synthesis and structure-activity relationships of a new set of 2-arylpyrazolo[3,4-c]quinoline derivatives as adenosine receptor antagonists” (J Med Chem, 2000)
